Reference: patent publication US20110196000A1, “Use of succinate dehydrogenase (SDH) inhibitors in the treatment of plant species from the family of the true grasses” (Bayer CropScience AG, priority 2010, published 2011)

Columns and labels:
Format in all cases: in vivo
wheat variety Ritmo [1] = assay: Plot trial in Germany: green leaf area by visual scoring; conditions: sprays at BBCH 39 and 59
Protocol: In Germany a plot trial was set up with the wheat variety Ritmo in order to investigate the effect of bixafen on the physiology, morphology and abiotic stress tolerance of wheat plants under realistic agricultural conditions. The products under test were applied to the plants, in the form of sequential spray sequences (BBCH 39 and 59). The spray volume was 400 l of water per hectare. In each trial component, 5 repetitions were carried out. [table] The duration of green coloration of the leaf area was captured by regular visual scoring of the fraction of green leaf area.

wheat variety Ritmo [2] = assay: Plot trial: chlorophyll content of leaves (pigment extraction method of Ziegler and Ehle)
wheat variety Ritmo [3] = assay: Plot trial: yield components; conditions: sprays at BBCH 39 and 59
[4] = 7 days after second fungicide application
[5] = 14 days after second fungicide application
[6] = 21 days after second fungicide application
[7] = 28 days after second fungicide application
[8] = 35 days after second fungicide application
[9] = 42 days after second fungicide application

O=C(Nc1ccccc1-c1ccc(Cl)cc1)c1cccnc1Cl [Boscalid, 2-chloro-N-(4′-chlorobiphenyl-2-yl)nicotinamide]
green leaf area of the flag leaf (wheat variety Ritmo [1]; [4]): 96.0 % leaf area
green leaf area of the second-from-top leaf (F-1) (wheat variety Ritmo [1]; [4]): 94.4 % leaf area
green leaf area of the third-from-top leaf (F-2) (wheat variety Ritmo [1]; [4]): 90.3 % leaf area
green leaf area of the flag leaf (wheat variety Ritmo [1]; [5]): 95.5 % leaf area
green leaf area of the second-from-top leaf (F-1) (wheat variety Ritmo [1]; [5]): 91.8 % leaf area
green leaf area of the third-from-top leaf (F-2) (wheat variety Ritmo [1]; [5]): 85.8 % leaf area
green leaf area of the flag leaf (wheat variety Ritmo [1]; [6]): 86.1 % leaf area
green leaf area of the second-from-top leaf (F-1) (wheat variety Ritmo [1]; [6]): 74.7 % leaf area
green leaf area of the third-from-top leaf (F-2) (wheat variety Ritmo [1]; [6]): 61.5 % leaf area
green leaf area of the flag leaf (wheat variety Ritmo [1]; [7]): 73.6 % leaf area
green leaf area of the second-from-top leaf (F-1) (wheat variety Ritmo [1]; [7]): 60.0 % leaf area
green leaf area of the third-from-top leaf (F-2) (wheat variety Ritmo [1]; [7]): 41.0 % leaf area
green leaf area of the flag leaf (wheat variety Ritmo [1]; [8]): 43.2 % leaf area
green leaf area of the second-from-top leaf (F-1) (wheat variety Ritmo [1]; [8]): 25.5 % leaf area
green leaf area of the third-from-top leaf (F-2) (wheat variety Ritmo [1]; [8]): 4.6 % leaf area
green leaf area of the flag leaf (wheat variety Ritmo [1]; [9]): 7.0 % leaf area
green leaf area of the second-from-top leaf (F-1) (wheat variety Ritmo [1]; [9]): 0 % leaf area
green leaf area of the third-from-top leaf (F-2) (wheat variety Ritmo [1]; [9]): 0 % leaf area
green leaf area of the second-from-top leaf (F-1) (wheat variety Ritmo [1]; 49 days after second fungicide application): 0 % leaf area
Chlorophyll content (wheat variety Ritmo [2]; BBCH 75 (mature milk), leaf F): 1597 µg/g
Chlorophyll content (wheat variety Ritmo [2]; BBCH 75 (mature milk), leaf F-1): 1505 µg/g
Chlorophyll content (wheat variety Ritmo [2]; BBCH 75 (mature milk), leaf F-2): 826 µg/g
Chlorophyll content (wheat variety Ritmo [2]; BBCH 85 (mature dough), leaf F): 188 µg/g
Chlorophyll content (wheat variety Ritmo [2]; BBCH 85 (mature dough), leaf F-1): 160 µg/g
Chlorophyll content (wheat variety Ritmo [2]; BBCH 85 (mature dough), leaf F-2): 110 µg/g
Ears/m^2 (wheat variety Ritmo [3]): 444
Harvest Index (wheat variety Ritmo [3]): 58.6
Straw (wheat variety Ritmo [3]): 514 g m^−2
TKM (thousand-kernel mass) (wheat variety Ritmo [3]): 44.6 g
Yield (wheat variety Ritmo [3]): 7.8 t ha^−1
